Reference: patent US20250205206A1, “USE OF DEXPRAMIPEXOLE FOR THE TREATMENT OF INADEQUATELY CONTROLLED MODERATE TO SEVERE ASTHMA” (Areteia Therapeutics, Inc., priority 2023, published 2025)
Where two headings read alike, the source gives them in different places.

Assays:
[1] = test system: subjects with eosinophilic chronic rhinosinusitis with nasal polyps; details: cited from earlier work; for total polyp score (TPS), mean value: baseline 5.29
[2] = test system: moderate to severe asthma; test: Phase II dose finding study in moderate to severe asthma (EXHALE)
[3] = test system: Chronic rhinosinusitis with nasal polyps; details: in vivo; cited from earlier work
[4] = 150 mg twice daily, 6 month trial
[5] = 150 mg twice daily, 12 subjects with a history of asthma

CCCN[C@@H]1CCc2nc(N)sc2C1 [dexpramipexole, (6R)-2-amino-4,5,6,7-tetrahydro-6-(propylamino)benzothiazole]
total polyp score (TPS), mean value ([1]; 150 mg twice daily, 3 months): 5.50
SNOT-22 (rhinosinusitis symptoms) [1, 4]: not improved
Sniffin Sticks olfaction test [1, 4]: not improved
sinus CT score [1, 4]: not improved
total polyp score (TPS), mean value ([1]; 150 mg twice daily, 6 months): 5.42
ACQ6 value [1, 5]: unchanged
FEV1 value [1, 5]: unchanged
lowering of the AEC (blood absolute eosinophil count) ([1]; dexpramipexole 150 mg twice daily, after 6 months, 16 subjects): 94%
safety and tolerability profile ([2]; Phase II, compared with placebo): tolerability profile of dexpramipexole in this Phase II study was similar to
eosinophils in blood and airways ([2]; Phase II, moderate to severe asthma): significant, dose-dependent, and durable reductions
placebo-corrected change from baseline in pre-bronchodilator (pre-BD) FEV1 ([2]; across the dose groups at various timepoints): clinically meaningful, placebo-corrected, change from baseline in pre-

B1: mepolizumab: eosinophil lowering drug; monoclonal antibody administered subcutaneously for asthma (antibody, chains of the INN, looked up, V domains shown)
VH: QVTLRESGPALVKPTQTLTLTCTVSGFSLTSYSVHWVRQPPGKGLEWLGVIWASGGTDYNSALMSRLSISKDTSRNQVVLTMTNMDPVDTATYYCARDPPSSLLRLDYWGRGTPVTVSS
VL: DIVMTQSPDSLAVSLGERATINCKSSQSLLNSGNQKNYLAWYQQKPGQPPKLLIYGASTRESGVPDRFSGSGSGTDFTLTISSLQAEDVAVYYCQNVHSFPFTFGGGTKLEIK
efficacy in chronic rhinosinusitis with nasal polyps [3]: have shown efficacy
